The target in experiment [1] is T1, Serine/threonine-protein kinase 17B (Homo sapiens) (UniProt O94768).
T1 sequence (whole entry): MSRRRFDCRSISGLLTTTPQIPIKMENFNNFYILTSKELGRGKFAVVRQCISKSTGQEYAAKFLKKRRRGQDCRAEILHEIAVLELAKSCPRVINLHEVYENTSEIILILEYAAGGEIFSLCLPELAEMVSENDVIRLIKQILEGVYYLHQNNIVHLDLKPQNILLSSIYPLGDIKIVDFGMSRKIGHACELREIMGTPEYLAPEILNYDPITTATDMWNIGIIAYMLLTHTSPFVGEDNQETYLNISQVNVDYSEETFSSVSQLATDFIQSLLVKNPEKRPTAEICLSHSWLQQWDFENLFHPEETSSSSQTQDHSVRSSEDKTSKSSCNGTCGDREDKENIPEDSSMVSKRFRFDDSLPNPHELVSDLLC
The experiment in a line: Selectivity interaction (LanthaScreen Eu Kinase Binding Assay) EUB0001632a STK17B. The following applies: at 10 µM. (Time-resolved FRET reads energy transfer from a long-lived donor to a nearby acceptor.)

For the next experiment, the target named is Activated CDC42 kinase 1 (Homo sapiens, UniProt Q07912). The experiment in a line: Selectivity interaction (Kinase panel (KiNativ target engagement assay in Jurkat cells)) EUB0001635a TNK2. Format: cell-based. The settings on record: Selectivity number of off-targets 0.0, Selectivity number of targets 233.0, Source Knowledge https://www.sciencedirect.com/science/article/pii/S2451945619300674?via%3Dihub, at 1 µM.

The target in experiment [2] is Mitogen-activated protein kinase kinase kinase 1 (Homo sapiens, UniProt Q13233). Nature of the experiment: Selectivity interaction (KinomeScan (DiscoverX)) EUB0000229b MAP3K1. The settings on record: at 10 µM.
The target in experiment [3] is Death-associated protein kinase 1 (Homo sapiens, UniProt P53355). The experiment in a line: Selectivity interaction (KinomeScan (DiscoverX)) EUB0001079a DAPK1. The settings on record: at 1 µM.
Experiment [4] has as its target T2, Alpha-2C adrenergic receptor (Homo sapiens) (UniProt P18825).
T2 sequence (whole entry): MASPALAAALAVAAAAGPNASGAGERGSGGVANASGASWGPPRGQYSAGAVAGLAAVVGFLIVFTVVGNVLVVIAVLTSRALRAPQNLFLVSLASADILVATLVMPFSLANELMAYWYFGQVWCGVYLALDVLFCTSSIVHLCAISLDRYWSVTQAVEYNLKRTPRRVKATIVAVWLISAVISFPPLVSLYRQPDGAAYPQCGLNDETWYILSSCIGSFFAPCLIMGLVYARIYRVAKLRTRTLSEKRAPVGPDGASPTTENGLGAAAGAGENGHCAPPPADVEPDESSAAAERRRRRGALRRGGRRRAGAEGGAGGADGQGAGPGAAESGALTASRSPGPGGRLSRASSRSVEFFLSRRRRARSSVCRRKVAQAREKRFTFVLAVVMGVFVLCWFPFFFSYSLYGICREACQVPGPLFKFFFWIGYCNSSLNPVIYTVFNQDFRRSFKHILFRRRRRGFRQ
The experiment in a line: Selectivity interaction (GPCR panel (PDSP screen)) EUB0001079a ADRA2C. The following applies: at 10 µM.

Experiment [5] deals with Phosphatidylinositol 4,5-bisphosphate 3-kinase catalytic subunit gamma isoform (Homo sapiens) (UniProt P48736). Nature of the experiment: Selectivity interaction (ActivX KiNativ screen (ex vivo kinase selectivity in human PBMCs)) EUB0001619a PIK3CG. The class given is cell-based. The following applies: PBMC, at 1 µM.
For experiment [6], the target named is Prostaglandin G/H synthase 1 (Homo sapiens) (UniProt P23219). Nature of the experiment: Selectivity interaction (Safety Panel 44tm (Eurofins)) EUB0000162b PTGS1. The settings on record: at 10 µM.
Experiment [7] addresses Phosphatidylinositol 4-phosphate 3-kinase C2 domain-containing subunit alpha (Homo sapiens) (UniProt O00443). The experiment in a line: Selectivity interaction (Kinase panel (Invitrogen)) EUB0000639a PIK3C2A. The following applies: at 200 nM.
Experiment [8] concerns the target T3, Serine/threonine-protein kinase ULK1 (Homo sapiens) (UniProt O75385).
T3 sequence (whole entry): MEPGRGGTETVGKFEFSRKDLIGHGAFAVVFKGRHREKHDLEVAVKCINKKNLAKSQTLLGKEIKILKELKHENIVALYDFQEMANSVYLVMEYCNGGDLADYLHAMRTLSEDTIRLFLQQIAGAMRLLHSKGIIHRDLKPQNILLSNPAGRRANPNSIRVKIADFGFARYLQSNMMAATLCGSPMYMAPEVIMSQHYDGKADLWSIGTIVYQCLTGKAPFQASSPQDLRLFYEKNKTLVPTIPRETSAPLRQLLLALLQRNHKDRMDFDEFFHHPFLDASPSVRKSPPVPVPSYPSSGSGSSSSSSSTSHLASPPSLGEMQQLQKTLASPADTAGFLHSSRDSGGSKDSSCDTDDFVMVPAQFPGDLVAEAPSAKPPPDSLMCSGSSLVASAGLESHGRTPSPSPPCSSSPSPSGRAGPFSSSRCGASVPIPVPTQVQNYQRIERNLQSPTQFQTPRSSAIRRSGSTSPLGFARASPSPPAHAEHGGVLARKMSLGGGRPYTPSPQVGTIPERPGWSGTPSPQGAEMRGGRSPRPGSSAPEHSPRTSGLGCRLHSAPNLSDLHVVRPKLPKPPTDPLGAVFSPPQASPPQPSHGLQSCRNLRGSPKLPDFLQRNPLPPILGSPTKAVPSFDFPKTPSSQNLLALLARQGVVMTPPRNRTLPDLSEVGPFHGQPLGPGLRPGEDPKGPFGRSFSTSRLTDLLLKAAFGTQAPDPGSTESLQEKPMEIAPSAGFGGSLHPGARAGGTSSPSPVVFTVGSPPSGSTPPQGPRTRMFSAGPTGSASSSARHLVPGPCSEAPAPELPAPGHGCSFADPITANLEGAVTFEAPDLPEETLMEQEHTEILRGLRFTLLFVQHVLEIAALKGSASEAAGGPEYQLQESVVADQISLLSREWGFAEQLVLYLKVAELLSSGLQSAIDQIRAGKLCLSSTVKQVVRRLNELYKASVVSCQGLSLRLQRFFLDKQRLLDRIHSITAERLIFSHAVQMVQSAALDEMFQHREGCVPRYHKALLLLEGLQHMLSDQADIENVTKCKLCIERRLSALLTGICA
The experiment in a line: Selectivity interaction (ActivX KiNativ screen (kinase selectivity in THP-1 cell lysates)) EUB0000639a ULK1. The settings on record: lysate, at 0.01 µM. Format: subcellular.

The target of experiment [9] is Casein kinase I isoform gamma-1 (Homo sapiens) (UniProt Q9HCP0). The experiment in a line: Selectivity interaction (ProQinase) EUB0000171b CSNK1G1.
The target of experiment [10] is Serine/threonine-protein kinase 10 (Homo sapiens) (UniProt O94804). Nature of the experiment: Selectivity interaction (KinomeScan (DiscoverX)) EUB0000045b STK10.
In experiment [11] the target is Mitogen-activated protein kinase 7 (Homo sapiens) (UniProt Q13164). Nature of the experiment: Selectivity interaction (KinomeScan (DiscoverX)) EUB0000618a MAPK7. The settings on record: at 10 µM.
Experiment [12] has as its target TGF-beta receptor type-2 (Homo sapiens) (UniProt P37173). The settings on record: at 10 µM.

The record followed here is ChEMBL document CHEMBL5465560, “Selectivity Literature for EUbOPEN Chemogenomic Library” (2024).

Casein kinase I isoform gamma-1 (Homo sapiens), sequence (Q9HCP0 whole entry, looked up, canonical isoform): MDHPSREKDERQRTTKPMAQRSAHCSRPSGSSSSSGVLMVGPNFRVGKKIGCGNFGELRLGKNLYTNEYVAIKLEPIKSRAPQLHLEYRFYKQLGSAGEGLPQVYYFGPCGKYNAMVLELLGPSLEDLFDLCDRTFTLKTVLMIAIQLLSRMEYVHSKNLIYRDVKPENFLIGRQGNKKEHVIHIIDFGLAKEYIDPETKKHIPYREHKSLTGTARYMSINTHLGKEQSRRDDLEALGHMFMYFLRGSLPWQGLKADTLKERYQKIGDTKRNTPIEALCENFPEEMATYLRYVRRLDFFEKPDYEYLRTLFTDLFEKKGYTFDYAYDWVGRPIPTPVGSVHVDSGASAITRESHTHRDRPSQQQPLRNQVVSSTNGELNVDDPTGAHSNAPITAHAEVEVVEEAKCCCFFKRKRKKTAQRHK
Serine/threonine-protein kinase 10 (Homo sapiens), sequence (O94804 whole entry, looked up): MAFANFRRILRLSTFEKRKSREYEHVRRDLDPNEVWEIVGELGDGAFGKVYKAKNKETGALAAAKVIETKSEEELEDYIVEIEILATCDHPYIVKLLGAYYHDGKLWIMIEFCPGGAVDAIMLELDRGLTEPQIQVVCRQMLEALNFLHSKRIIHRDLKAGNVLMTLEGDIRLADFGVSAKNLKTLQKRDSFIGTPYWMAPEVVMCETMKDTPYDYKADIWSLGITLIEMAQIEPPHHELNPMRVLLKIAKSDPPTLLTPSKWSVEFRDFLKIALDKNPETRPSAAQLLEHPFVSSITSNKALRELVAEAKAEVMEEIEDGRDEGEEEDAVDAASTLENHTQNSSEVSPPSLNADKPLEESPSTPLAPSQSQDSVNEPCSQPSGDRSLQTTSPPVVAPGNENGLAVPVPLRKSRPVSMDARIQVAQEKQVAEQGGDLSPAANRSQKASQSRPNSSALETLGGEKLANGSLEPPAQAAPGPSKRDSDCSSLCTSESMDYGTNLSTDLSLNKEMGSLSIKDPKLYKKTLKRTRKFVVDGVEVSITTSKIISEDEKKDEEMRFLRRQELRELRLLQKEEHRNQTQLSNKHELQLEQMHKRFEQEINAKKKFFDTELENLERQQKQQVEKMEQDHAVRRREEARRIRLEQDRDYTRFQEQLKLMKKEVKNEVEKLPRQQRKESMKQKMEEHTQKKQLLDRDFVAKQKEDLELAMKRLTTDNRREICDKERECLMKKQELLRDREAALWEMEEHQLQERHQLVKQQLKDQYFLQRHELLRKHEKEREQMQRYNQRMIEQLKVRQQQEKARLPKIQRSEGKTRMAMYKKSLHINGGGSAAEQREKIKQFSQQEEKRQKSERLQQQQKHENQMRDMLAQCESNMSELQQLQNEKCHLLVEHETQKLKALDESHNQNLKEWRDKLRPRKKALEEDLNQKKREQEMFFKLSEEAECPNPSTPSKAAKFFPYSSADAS
Death-associated protein kinase 1, sequence (P53355 whole entry, looked up): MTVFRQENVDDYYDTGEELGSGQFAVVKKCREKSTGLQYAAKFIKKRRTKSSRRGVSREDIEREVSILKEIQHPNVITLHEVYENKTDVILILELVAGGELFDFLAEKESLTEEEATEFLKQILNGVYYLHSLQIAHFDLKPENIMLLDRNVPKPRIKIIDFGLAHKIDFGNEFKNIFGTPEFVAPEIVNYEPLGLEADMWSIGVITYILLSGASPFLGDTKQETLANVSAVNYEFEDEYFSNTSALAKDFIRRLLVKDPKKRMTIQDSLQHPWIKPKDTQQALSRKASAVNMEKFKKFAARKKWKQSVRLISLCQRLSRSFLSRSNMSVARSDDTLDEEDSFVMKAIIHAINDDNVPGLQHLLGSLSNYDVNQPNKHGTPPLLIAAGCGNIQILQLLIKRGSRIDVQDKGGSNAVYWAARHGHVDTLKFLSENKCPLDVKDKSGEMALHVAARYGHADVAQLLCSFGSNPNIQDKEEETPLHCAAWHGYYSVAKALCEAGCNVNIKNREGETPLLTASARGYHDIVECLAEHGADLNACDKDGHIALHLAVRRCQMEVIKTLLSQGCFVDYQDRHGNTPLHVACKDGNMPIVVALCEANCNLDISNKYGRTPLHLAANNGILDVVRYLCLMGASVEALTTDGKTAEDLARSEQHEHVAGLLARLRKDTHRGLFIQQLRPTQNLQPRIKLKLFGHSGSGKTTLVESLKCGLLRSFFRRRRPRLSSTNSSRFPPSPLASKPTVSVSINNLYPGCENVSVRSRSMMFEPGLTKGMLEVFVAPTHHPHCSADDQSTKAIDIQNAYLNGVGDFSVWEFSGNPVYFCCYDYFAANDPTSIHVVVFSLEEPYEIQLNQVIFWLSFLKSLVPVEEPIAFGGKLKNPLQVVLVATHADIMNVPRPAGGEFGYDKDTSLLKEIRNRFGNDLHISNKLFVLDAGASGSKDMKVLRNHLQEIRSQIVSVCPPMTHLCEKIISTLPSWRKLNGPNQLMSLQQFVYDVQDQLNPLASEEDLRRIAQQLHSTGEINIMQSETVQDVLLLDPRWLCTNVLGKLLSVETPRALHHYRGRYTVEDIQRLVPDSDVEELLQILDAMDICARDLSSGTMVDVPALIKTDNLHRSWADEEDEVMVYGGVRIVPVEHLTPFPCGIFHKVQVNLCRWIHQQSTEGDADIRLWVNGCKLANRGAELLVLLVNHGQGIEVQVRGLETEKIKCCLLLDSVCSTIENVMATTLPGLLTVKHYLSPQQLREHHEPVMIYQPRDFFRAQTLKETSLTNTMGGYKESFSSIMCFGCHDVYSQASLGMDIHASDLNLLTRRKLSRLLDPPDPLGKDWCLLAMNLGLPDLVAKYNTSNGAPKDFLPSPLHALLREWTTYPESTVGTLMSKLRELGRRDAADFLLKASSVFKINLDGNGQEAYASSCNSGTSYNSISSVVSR
Mitogen-activated protein kinase kinase kinase 1, sequence (Q13233 whole entry): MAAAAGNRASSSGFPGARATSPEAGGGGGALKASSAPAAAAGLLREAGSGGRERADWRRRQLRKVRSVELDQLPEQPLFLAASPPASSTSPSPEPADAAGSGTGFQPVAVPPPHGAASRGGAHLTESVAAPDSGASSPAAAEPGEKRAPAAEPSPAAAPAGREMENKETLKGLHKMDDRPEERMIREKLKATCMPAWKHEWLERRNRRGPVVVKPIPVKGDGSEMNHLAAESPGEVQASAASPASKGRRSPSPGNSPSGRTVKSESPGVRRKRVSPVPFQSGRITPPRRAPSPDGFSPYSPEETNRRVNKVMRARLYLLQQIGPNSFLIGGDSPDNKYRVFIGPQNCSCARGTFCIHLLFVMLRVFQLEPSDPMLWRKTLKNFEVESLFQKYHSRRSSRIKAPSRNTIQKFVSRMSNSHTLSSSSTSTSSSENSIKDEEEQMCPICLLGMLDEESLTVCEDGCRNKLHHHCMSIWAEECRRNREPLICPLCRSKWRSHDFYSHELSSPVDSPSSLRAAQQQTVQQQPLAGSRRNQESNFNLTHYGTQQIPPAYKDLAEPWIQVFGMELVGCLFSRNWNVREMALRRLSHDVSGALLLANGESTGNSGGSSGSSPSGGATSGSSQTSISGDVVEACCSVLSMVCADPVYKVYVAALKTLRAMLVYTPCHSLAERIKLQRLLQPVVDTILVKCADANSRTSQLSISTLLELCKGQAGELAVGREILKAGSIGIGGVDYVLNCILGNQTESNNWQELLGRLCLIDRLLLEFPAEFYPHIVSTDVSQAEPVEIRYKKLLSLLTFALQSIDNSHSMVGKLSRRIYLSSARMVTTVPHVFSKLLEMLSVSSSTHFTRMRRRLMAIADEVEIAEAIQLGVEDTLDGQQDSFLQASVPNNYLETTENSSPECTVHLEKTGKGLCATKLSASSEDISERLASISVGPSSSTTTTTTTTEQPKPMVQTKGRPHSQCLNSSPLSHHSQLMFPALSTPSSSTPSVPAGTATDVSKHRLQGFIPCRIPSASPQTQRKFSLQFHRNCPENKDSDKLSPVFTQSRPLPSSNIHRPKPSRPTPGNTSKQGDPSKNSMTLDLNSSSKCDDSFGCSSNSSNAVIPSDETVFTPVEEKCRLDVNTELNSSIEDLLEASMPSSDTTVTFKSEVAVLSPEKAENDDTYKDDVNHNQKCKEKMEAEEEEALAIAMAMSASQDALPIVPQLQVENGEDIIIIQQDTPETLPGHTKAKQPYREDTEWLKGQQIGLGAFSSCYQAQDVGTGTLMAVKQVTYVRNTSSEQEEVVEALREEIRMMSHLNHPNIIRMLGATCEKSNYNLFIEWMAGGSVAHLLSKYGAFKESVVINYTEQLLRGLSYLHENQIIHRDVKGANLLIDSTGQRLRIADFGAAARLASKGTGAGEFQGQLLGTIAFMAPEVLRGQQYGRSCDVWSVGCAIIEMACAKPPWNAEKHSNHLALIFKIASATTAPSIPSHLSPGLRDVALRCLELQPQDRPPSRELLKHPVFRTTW
TGF-beta receptor type-2 (Homo sapiens), sequence (P37173 whole entry): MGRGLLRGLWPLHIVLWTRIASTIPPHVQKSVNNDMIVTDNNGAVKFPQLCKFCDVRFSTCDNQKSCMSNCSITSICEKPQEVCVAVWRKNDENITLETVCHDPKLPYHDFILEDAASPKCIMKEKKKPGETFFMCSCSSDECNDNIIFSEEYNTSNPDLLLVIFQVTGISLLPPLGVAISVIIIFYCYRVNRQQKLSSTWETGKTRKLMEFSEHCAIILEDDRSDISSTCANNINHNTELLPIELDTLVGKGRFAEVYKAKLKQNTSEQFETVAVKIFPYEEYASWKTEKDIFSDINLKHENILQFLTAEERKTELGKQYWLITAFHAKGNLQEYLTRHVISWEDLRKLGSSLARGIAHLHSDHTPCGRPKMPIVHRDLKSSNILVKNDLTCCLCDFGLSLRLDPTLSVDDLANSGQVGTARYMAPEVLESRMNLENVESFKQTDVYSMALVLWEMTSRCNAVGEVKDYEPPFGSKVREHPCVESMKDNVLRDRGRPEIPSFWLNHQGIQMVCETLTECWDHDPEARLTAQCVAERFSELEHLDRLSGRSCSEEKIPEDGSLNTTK

In the case of `Cn1cc(-n2cnc3c(NCc4nc5cc(Cl)c(Cl)cc5[nH]4)nc(N4CCOCC4)nc32)cn1`, the % of inhibition in [1] is -19.1%.

As for `C=CC(=O)Nc1ccc(C(=O)Nc2[nH]nc3c2CN(C(=O)N[C@H](CN(C)C)c2ccccc2)C3(C)C)cc1`, the % of engagement on Activated CDC42 kinase 1 is -3.6%.

Regarding `COc1cc(N(C)c2ccnc3ccc(C(F)(F)F)cc23)cc(OC)c1OC`, the % binding in [2] was 74%.

Take `Nc1cnc(N2CCc3cc(S(=O)(=O)Nc4c(F)cc(Cl)cc4F)cc(N4CCCC4=O)c32)nc1` [TP-020n]: in experiment [3], the % of control was 100%. The % of inhibition in [4] is -14.3%.

In the case of `N#Cc1cccc(-c2c[nH]c3ncnc(N4CCOCC4)c23)c1`, in [5], the % of inhibition was -6%.

Compound `CN(C)C(=O)Cn1cc(-c2ccc(-c3cncc4ccccc34)cc2)cn1` came in with a % of control in experiment [6] of 59%.

`CC[C@@H]1[C@H](F)C(=O)N[C@@H]1COc1nccc2cc(C(N)=O)c(OC)cc12` [ZIMLOVISERTIB]: the % of inhibition is -2.62% in experiment [7] and -5.9% in experiment [8].

Consider `C=CC(=O)Nc1cccc(C(=O)Nc2ccc(Nc3cc(-c4[nH]c(SC)nc4C)ccn3)cc2)c1`, for which the % of control came out at 65% in experiment [9] (at 1 µM) and 31% in experiment [9] (at 5 µM).

`C=CC(=O)Nc1cc(-n2c(=O)ccc3cnc4ccc(-c5ccc(NS(C)(=O)=O)cc5)cc4c32)ccc1C`: the values for the % of control in experiment [10] (at 1 µM) and in experiment [10] (at 10 µM) were 87% and 100%, respectively.

For `O[C@H]1CC[C@H](Nc2ncc3nc(Nc4c(F)cc(F)cc4F)n([C@H]4CCOC4)c3n2)CC1`, the % of control in experiment [11] came out at 90%.

The compound `COCC(=O)NC/C=C/c1ccc2ncnc(Nc3ccc(Oc4ccc(C)nc4)c(C)c3)c2c1` [CP-724714] showed a % of control in experiment [12] of 94%.
